# Target: LSD-1 enzyme (LSD1/KDM1A) (Homo sapiens (Human), UniProt O60341)
# Assay: biochemical
# Description: LANCE LSD1/KDM1A demethylase assay—10 μL of 1 nM LSD-1 enzyme (ENZO BML-SE544-0050) in the assay buffer (50 mM Tris, pH 7.5, 0.01% Tween-20, 25 mM NaCl, 5 mM DTT) were preincubated for 1 hour at 25° C. with 0.8 μL compound/DMSO dotted in black 384 well polystyrene plates. […] After stopping the reactions plates were incubated for 30 minutes and read on a PHERAstar FS plate reader (BMG Labtech).
row,Structure (SMILES),IC50 [nM]
1,"Cc1ccc(-c2c(-c3ccc(C#N)cc3)cc(OC[C@@H]3CCNC3)c3ncnn23)cc1 [Example 1, 4-{5-(4-methylphenyl)-8-[(3R)-pyrrolidin-3-ylmethoxy][1,2,4]triazolo[1,5-a]pyridin-6-yl}benzonitrile]",< 50
2,"Cc1ccc(-c2c(-c3ccc(C#N)cc3)cc(CCC3CCNC3)c3ncnn23)cc1 (centres unmarked) [Example 2, 4-[5-(4-methylphenyl)-8-(2-pyrrolidin-3-ylethyl)[1,2,4]triazolo[1,5-a]pyridin-6-yl]benzonitrile]",< 50
3,"CN[C@H]1CCN(Cc2cc(-c3ccc(C#N)cc3)c(-c3ccc(C)cc3)n3ncnc23)C1 [Example 10, 4-[8-{[(3S)-3-(methylamino)pyrrolidin-1-yl]methyl}-5-(4-methylphenyl)[1,2,4]triazolo[1,5-a]pyridin-6-yl]benzonitrile]",< 50
4,"CN[C@@H]1CCN(Cc2cc(-c3ccc(C#N)cc3)c(-c3ccc(C)cc3)n3ncnc23)C1 [Example 11, 4-[8-{[(3R)-3-(methylamino)pyrrolidin-1-yl]methyl}-5-(4-methylphenyl)[1,2,4]triazolo[1,5-a]pyridin-6-yl]benzonitrile]",< 50
5,"Cc1ccc(-c2c(-c3ccc(C#N)cc3)nc(OC[C@@H]3CCNC3)c3ncnn23)cc1 [Example 12, 4-{5-(4-methylphenyl)-8-[(3R)-pyrrolidin-3-ylmethoxy][1,2,4]triazolo[1,5-a]pyrazin-6-yl}benzonitrile]",< 50

# — patent publication US9695167B2, “Substituted triazolo[1,5-a]pyridines and triazolo[1,5-a]pyrazines as LSD1 inhibitors” (Incyte Corporation, priority 2014, dated 2017)
